Consider 21 compounds from patent US20250197368A1 (priority 2020, published 2025).

Test [1] deals with human α2β3γ2 GABAARs (benzodiazepine site) (Homo sapiens (Human), UniProt P18507+P47869). Put plainly: In vitro radioligand binding assay ([3H]Ro15-1788 displacement), α2-GABAAR Ki. The procedure, abridged: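 Membranes from dexamethasone-induced mouse L(tk−) cells stably expressing the human receptor were incubated 1 h at 4° C with 4 nM [3H]Ro15-1788 and graded compound; nonspecific binding with 1-3 μM TP003. Filter-bound radioactivity counted; Ki from IC50 by Cheng-Prusoff using the measured radioligand Kd.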
Sequence of human α2β3γ2 GABAARs (benzodiazepine site) (P47869 29-451): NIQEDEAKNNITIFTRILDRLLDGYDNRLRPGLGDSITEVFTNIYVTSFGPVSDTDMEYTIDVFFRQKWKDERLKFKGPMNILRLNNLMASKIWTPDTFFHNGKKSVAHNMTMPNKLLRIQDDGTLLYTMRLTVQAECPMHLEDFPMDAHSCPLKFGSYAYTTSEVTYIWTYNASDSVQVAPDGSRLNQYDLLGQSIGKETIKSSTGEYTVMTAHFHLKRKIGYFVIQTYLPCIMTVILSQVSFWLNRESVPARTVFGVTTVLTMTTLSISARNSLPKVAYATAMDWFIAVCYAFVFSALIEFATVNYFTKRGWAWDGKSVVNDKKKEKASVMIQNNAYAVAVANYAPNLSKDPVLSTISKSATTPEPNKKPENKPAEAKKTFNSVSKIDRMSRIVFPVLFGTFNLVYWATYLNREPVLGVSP
Sequence of human α2β3γ2 GABAARs (benzodiazepine site) (P28472 26-473 partner): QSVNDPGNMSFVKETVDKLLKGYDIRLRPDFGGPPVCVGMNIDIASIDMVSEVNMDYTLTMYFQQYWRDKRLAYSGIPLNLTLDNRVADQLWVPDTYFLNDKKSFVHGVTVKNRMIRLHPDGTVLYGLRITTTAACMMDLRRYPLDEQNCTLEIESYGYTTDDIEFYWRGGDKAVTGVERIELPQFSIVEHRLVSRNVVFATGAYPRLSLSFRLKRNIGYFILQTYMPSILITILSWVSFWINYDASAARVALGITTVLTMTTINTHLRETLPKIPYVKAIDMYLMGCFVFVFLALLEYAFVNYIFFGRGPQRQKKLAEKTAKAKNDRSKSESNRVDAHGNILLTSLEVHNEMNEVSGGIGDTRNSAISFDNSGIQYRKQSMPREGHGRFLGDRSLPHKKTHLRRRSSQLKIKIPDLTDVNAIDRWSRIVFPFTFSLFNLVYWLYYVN
Sequence of human α2β3γ2 GABAARs (benzodiazepine site) (P18507 40-475): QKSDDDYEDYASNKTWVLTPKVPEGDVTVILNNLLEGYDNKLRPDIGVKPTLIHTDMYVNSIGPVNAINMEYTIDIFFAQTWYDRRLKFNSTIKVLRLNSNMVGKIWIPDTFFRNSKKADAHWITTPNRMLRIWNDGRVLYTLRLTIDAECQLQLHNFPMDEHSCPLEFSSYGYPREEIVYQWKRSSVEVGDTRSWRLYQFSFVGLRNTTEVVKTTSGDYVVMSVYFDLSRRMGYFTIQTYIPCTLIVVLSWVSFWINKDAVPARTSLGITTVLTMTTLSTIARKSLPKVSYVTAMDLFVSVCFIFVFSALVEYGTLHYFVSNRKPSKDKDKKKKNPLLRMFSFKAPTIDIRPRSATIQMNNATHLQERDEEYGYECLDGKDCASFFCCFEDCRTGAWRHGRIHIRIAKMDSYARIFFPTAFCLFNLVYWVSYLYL

For a further test, the system named is human α2β3γ2 GABAARs. Put plainly: In vitro electrophysiological recording assay (automated patch-clamp), α2-GABAAR relative efficacy. The conditions noted are these: % efficacy normalised to diazepam; GABA EC10-20; concentration generally >= 100 times Ki. The test is classed as cell-based. The procedure, abridged: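 Automated whole-cell patch clamp at 20-22° C on L(tk^−) cells (QPatch, −65 mV) or HEK293 cells (SyncroPatch, −80 mV) stably expressing the human receptor. Compound pre-applied ≥1 min, then co-applied with GABA EC10-20; % potentiation of leak-corrected peak current, normalised to diazepam, typically at ≥100× Ki.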

With `COc1ccncc1-c1cccc2c(N)c(C(=O)NCC(C)C)c(=O)n(C)c12` [Example 79, 4-Amino-N-isobutyl-8-(4-methoxy-3-pyridyl)-1-methyl-2-oxo-quinoline-3-carboxamide], the Ki in test [1] came out at 2.51 nM. The “α2-GABAAR Relative Efficacy (vs. Diazepam)” value (from here on “α2-GABAAR Relative Efficacy”) in the test on human α2β3γ2 GABAARs worked out at 0.81.

`CCCNC(=O)c1c(N)c2cccc(-c3cn(C)nc3C)c2n(C)c1=O` [Example 80, 4-Amino-8-(1,3-dimethylpyrazol-4-yl)-1-methyl-2-oxo-N-propyl-quinoline-3-carboxamide]: the Ki in test [1] is 4.44 nM. Further, the “α2-GABAAR Relative Efficacy” value with human α2β3γ2 GABAARs worked out at 0.6.

Turning to `Cc1nn(C)cc1-c1cccc2c(N)c(C(=O)NCC3CC3)c(=O)n(C)c12` [Example 81, 4-Amino-N-(cyclopropylmethyl)-8-(1,3-dimethylpyrazol-4-yl)-1-methyl-2-oxo-quinoline-3-carboxamide], the Ki in test [1] was found to be 2.19 nM. Further, in the test on human α2β3γ2 GABAARs, the “α2-GABAAR Relative Efficacy” value amounted to 0.81.

For the compound `Cc1nn(C)cc1-c1cccc2c(N)c(C(=O)NCC(C)C)c(=O)n(C)c12` [Example 82, 4-Amino-8-(1,3-dimethylpyrazol-4-yl)-N-isobutyl-1-methyl-2-oxo-quinoline-3-carboxamide], in test [1], the Ki is 6.66 nM. In the test on human α2β3γ2 GABAARs, the “α2-GABAAR Relative Efficacy” value turned out to be 0.31.

Consider `CCCNC(=O)c1c(N)c2cccc(-c3cn(C)nc3C)c2n(CC)c1=O` [Example 83, 4-Amino-8-(1,3-dimethylpyrazol-4-yl)-1-ethyl-2-oxo-N-propyl-quinoline-3-carboxamide], for which the Ki in test [1] turned out to be 15.7 nM. Further, the “α2-GABAAR Relative Efficacy” value with human α2β3γ2 GABAARs worked out at 0.40.

As for `CCCNC(=O)c1c(N)c2cccc(-c3cc(OCc4ccccn4)ccc3C)c2[nH]c1=O` [Example 86, 4-Amino-8-[2-methyl-5-(2-pyridylmethoxy)phenyl]-2-oxo-N-propyl-1H-quinoline-3-carboxamide], the Ki in test [1] was determined as 1.71 nM. Also, the “α2-GABAAR Relative Efficacy” value in the test with human α2β3γ2 GABAARs was 0.28.

As for `CCCNC(=O)c1c(N)c2cccc(-c3cccc(OCc4ccccn4)c3)c2[nH]c1=O` [Example 87, 4-Amino-2-oxo-N-propyl-8-[3-(2-pyridylmethoxy)phenyl]-1H-quinoline-3-carboxamide], in test [1], the Ki is 1.78 nM. In the test on human α2β3γ2 GABAARs, the “α2-GABAAR Relative Efficacy” value is listed as 0.24.

With `CCCNC(=O)c1c(N)c2cccc(-c3cc(OCc4cccc(OC)n4)ccc3F)c2[nH]c1=O` [Example 89, 4-Amino-8-[2-fluoro-5-[(6-methoxy-2-pyridyl)methoxy]phenyl]-2-oxo-N-propyl-1H-quinoline-3-carboxamide], the Ki in test [1] turned out to be 1.55 nM. Moreover, the “α2-GABAAR Relative Efficacy” value with human α2β3γ2 GABAARs was determined as 0.3.

Take `CCCNC(=O)c1c(N)c2cccc(-c3cc(OCc4cccc(C(F)(F)F)n4)ccc3F)c2[nH]c1=O` [Example 90, 4-Amino-8-[2-fluoro-5-[[6-(trifluoromethyl)-2-pyridyl]methoxy]phenyl]-2-oxo-N-propyl-1H-quinoline-3-carboxamide]: the Ki in test [1] was determined as 3 nM. The “α2-GABAAR Relative Efficacy” value in the test on human α2β3γ2 GABAARs came to 0.18.

As for `CCCNC(=O)c1c(N)c2cccc(-c3cc(OCc4ccc(F)cn4)ccc3C)c2[nH]c1=O` [Example 93], in test [1], the Ki amounted to 1.63 nM. Further, in the test with human α2β3γ2 GABAARs, the “α2-GABAAR Relative Efficacy” value came to 0.34.

In the case of `CCCNC(=O)c1c(N)c2cccc(-c3cccc(OCc4ccc(F)cn4)c3)c2[nH]c1=O` [Example 94, 4-Amino-8-[3-[(5-fluoro-2-pyridyl)methoxy]phenyl]-2-oxo-N-propyl-1H-quinoline-3-carboxamide], in test [1], the Ki is 2.42 nM. The “α2-GABAAR Relative Efficacy” value in the test on human α2β3γ2 GABAARs is 0.28.

As for `CCCNC(=O)c1c(N)c2cccc(-c3cc(OCc4ccc(C)cn4)ccc3F)c2[nH]c1=O` [Example 95, 4-Amino-8-[2-fluoro-5-[(5-methyl-2-pyridyl)methoxy]phenyl]-2-oxo-N-propyl-1H-quinoline-3-carboxamide], in test [1], the Ki was found to be 0.44 nM. The “α2-GABAAR Relative Efficacy” value with human α2β3γ2 GABAARs stood at 0.22.

As to `CCCNC(=O)c1c(N)c2cccc(-c3cc(OCc4ccc(OC)cn4)ccc3F)c2[nH]c1=O` [Example 96, 4-Amino-8-[2-fluoro-5-[(5-methoxy-2-pyridyl)methoxy]phenyl]-2-oxo-N-propyl-1H-quinoline-3-carboxamide], in test [1], the Ki amounted to 0.92 nM. Besides, the “α2-GABAAR Relative Efficacy” value with human α2β3γ2 GABAARs was 0.24.

Take `CCCNC(=O)c1c(N)c2cccc(-c3cc(OCc4ccc(Cl)cn4)ccc3F)c2[nH]c1=O` [Example 97, 4-Amino-8-[5-[(5-chloro-2-pyridyl)methoxy]-2-fluoro-phenyl]-2-oxo-N-propyl-1H-quinoline-3-carboxamide]: the Ki in test [1] worked out at 0.72 nM. Besides, the “α2-GABAAR Relative Efficacy” value in the test on human α2β3γ2 GABAARs stood at 0.25.

For the compound `CCCNC(=O)c1c(N)c2cccc(-c3cc(OCc4ccc(C(F)(F)F)cn4)ccc3F)c2[nH]c1=O` [Example 98, 4-Amino-8-[2-fluoro-5-[[5-(trifluoromethyl)-2-pyridyl]methoxy]phenyl]-2-oxo-N-propyl-1H-quinoline-3-carboxamide], in test [1], the Ki stood at 0.61 nM. Besides, in the test with human α2β3γ2 GABAARs, the “α2-GABAAR Relative Efficacy” value is 0.29.

For `CCCNC(=O)c1c(N)c2cccc(-c3cc(OCc4ccc(C#N)cn4)ccc3F)c2[nH]c1=O` [Example 99, 4-Amino-8-[5-[(5-cyano-2-pyridyl)methoxy]-2-fluoro-phenyl]-2-oxo-N-propyl-1H-quinoline-3-carboxamide], in test [1], the Ki stood at 0.24 nM. Moreover, in the test on human α2β3γ2 GABAARs, the “α2-GABAAR Relative Efficacy” value was 0.28.

On to `CCCNC(=O)c1c(N)c2cccc(-c3cc(OCc4cc(OC)ccn4)ccc3F)c2[nH]c1=O` [Example 100, 4-Amino-8-[2-fluoro-5-[(4-methoxy-2-pyridyl)methoxy]phenyl]-2-oxo-N-propyl-1H-quinoline-3-carboxamide], for which the Ki in test [1] is 0.07 nM. In addition, the “α2-GABAAR Relative Efficacy” value in the test on human α2β3γ2 GABAARs amounted to 0.18.

As for `CCCNC(=O)c1c(N)c2cccc(-c3cc(OCc4cc(C#N)ccn4)ccc3F)c2[nH]c1=O` [Example 101, 4-Amino-8-[5-[(4-cyano-2-pyridyl)methoxy]-2-fluoro-phenyl]-2-oxo-N-propyl-1H-quinoline-3-carboxamide], the Ki in test [1] was 0.19 nM. In addition, the “α2-GABAAR Relative Efficacy” value in the test with human α2β3γ2 GABAARs worked out at 0.31.

On to `CCCNC(=O)c1c(N)c2cccc(-c3cc(OCc4cc(CO)ccn4)ccc3F)c2[nH]c1=O` [Example 102, 4-Amino-8-(2-fluoro-5-((4-(hydroxymethyl)pyridin-2-yl)methoxy)phenyl)-2-oxo-N-propyl-1,2-dihydroquinoline-3-carboxamide], for which the Ki in test [1] came out at 0.7 nM. In addition, in the test with human α2β3γ2 GABAARs, the “α2-GABAAR Relative Efficacy” value came to 0.33.

For `CCCNC(=O)c1c(N)c2cccc(-c3cc(OCc4ncccc4C)ccc3F)c2[nH]c1=O` [Example 103, 4-Amino-8-[2-fluoro-5-[(3-methyl-2-pyridyl)methoxy]phenyl]-2-oxo-N-propyl-1H-quinoline-3-carboxamide], the inhibitory constant (Ki) in test [1] came to 1.68 nM. Moreover, the “α2-GABAAR Relative Efficacy” value with human α2β3γ2 GABAARs is reported as 0.37.

In the case of `CCCNC(=O)c1c(N)c2cccc(-c3cc(COc4ccccn4)ncc3F)c2[nH]c1=O` [Example 104, 4-Amino-8-(5-fluoro-2-((pyridin-2-yloxy)methyl)pyridin-4-yl)-2-oxo-N-propyl-1,2-dihydroquinoline-3-carboxamide], the Ki in test [1] worked out at 2.08 nM. In addition, in the test on human α2β3γ2 GABAARs, the “α2-GABAAR Relative Efficacy” value worked out at 0.27.
